Data as given in a melting point compilation (Tetko et al.; mined from patent text by program, amines drawn as free bases though some values may be those of a salt).

For `COC(=O)c1cc(Cl)cc2c1OCCN2C`, which melting point is on record?
The melting point was 91 to 92 °C.

With `O=C(O)c1cn2c(n1)COc1ccc(Cl)cc1-2` as the compound, how does the melting point read?
The melting point was 276 to 278 °C.

With `O=C(N[C@H]1CCN(C(=O)c2cc(C(F)(F)F)cc(C(F)(F)F)c2)[C@H](Cc2ccc(Cl)cc2)C1)c1cc(=O)c2cc(F)ccc2o1` as the compound, how does the melting point read?
The melting point was 215 to 218 °C.

For `CCOC(=O)C1CCN(c2nnc(NCc3ccc(OC)c(Cl)c3)c3cc([N+](=O)[O-])ccc23)CC1`, which melting point is on record?
Its melting point is 208 to 210 °C.

Which melting point does the source give for `COc1ccc(CCNC(=O)CC=CCC(=O)NCCc2ccccc2)cc1OC` here?
Its melting point is 150 to 152 °C.

Which melting point does the source give for `Cn1nnnc1C(CO)=C(c1ccc(F)cc1)c1ccc(F)cc1` here?
The melting point was 141 to 142 °C.

Which melting point does the source give for `O=C(c1ccc(C(F)(F)F)cc1)c1ccc(O)cn1` here?
Its melting point is > 260 °C.

Which melting point does the source give for `O=C1C2CCC(N1c1ccc(F)cc1)n1c(=O)n(-c3ccccc3)c(=O)n12` (stereo unspecified) here?
Its melting point is 167 to 168 °C.

With `CCCn1c(=O)c(C(=O)OCC)c(O)c2cnc(-c3ccccc3)nc21` as the compound, how does the melting point read?
Its melting point is 164 to 167 °C.

With `CCOC(=O)CN1C(=O)C(NC(=O)c2ccc3ccccc3c2)C(c2ccc(OC)cc2)Sc2ccccc21` (stereo unspecified) as the compound, how does the melting point read?
Its melting point is 183 to 186 °C.

For `O=C1COc2ccc(Br)cc2N1O`, which melting point is on record?
The melting point was 201 to 204 °C.

With `CON=C(C)C(=NOCc1ccccc1)C(=O)O` as the compound, how does the melting point read?
Its melting point is 88 to 89 °C.

Which melting point does the source give for `COc1ccc(Cl)cc1C(=O)NCCOc1ccc(CC2SC(=O)NC2=O)cc1` (stereo unspecified) here?
Its melting point is 66 to 67 °C.

With `CCCCOc1ccccc1Nc1ncc(C(=O)O)c(=O)[nH]1` as the compound, how does the melting point read?
Its melting point is 212 to 214 °C.

With `Oc1cccc2c1CCCC2CN1CCCCC1` (stereo unspecified) as the compound, how does the melting point read?
The melting point was 129 to 131 °C.

Which melting point does the source give for `OCCCCCCC(O)C(c1ccc(Cl)cc1Cl)n1ccnc1` (stereo unspecified) here?
Its melting point is 74 to 76 °C.

Which melting point does the source give for `O=C(O)CC(C(=O)O)C(CSc1nc2ccccc2s1)C(=O)O` (stereo unspecified) here?
The melting point was 188 to 190 °C.

With `CC[C@@H]1NC(=O)C[C@@]1(O)C1CC1` as the compound, how does the melting point read?
The melting point was 87 to 102 °C.

With `C#CCc1c(C)nc2c(NCc3c(C)cccc3NC(=O)OC)cc(NC(C)=O)cn12` as the compound, how does the melting point read?
The melting point was 125 to 128 °C.

Which melting point does the source give for `Cc1c(F)c(N2CCC(n3cc(-c4ccccc4)nn3)C2)c(F)c2c1c(=O)c(C(=O)O)cn2C1CC1` (stereo unspecified) here?
Its melting point is 221 °C.

With `COc1ccc2cc(CNc3ccc(O)cc3)ccc2c1` as the compound, how does the melting point read?
Its melting point is 139 to 140 °C.

For `C=CCc1cccc2c(=O)c(C)c(C=Cc3ccccc3)oc12`, which melting point is on record?
The melting point was 126 °C.

Which melting point does the source give for `CCCCCCCCCCCCn1nnc(CC(=O)Nc2c(C(C)C)cccc2C(C)C)n1` here?
Its melting point is 75 to 79 °C.

Which melting point does the source give for `COc1ccc(CCNC(=O)C(F)(F)F)cc1S(=O)(=O)Cl` here?
Its melting point is 96 to 98 °C.

For `CCOCc1nc2c(N)nc3ccccc3c2n1CCN1C(C)=NOC1(C)C`, which melting point is on record?
Its melting point is 204 to 205 °C.

With `CN(C)c1nc(N)ncc1Cc1ccccc1` as the compound, how does the melting point read?
The melting point was 181 to 182 °C.

For `N#CCOC(=O)c1ccc(C(c2ccccc2)c2ccccc2)cn1`, which melting point is on record?
Its melting point is 95 to 98 °C.

With `Nc1cc(O)nc(SCc2c(F)cccc2F)n1` as the compound, how does the melting point read?
The melting point was 245 to 246 °C.

Which melting point does the source give for `CS(=O)(=O)Nc1cc2occ([N+](=O)[O-])c(=O)c2cc1Oc1ccccc1` here?
Its melting point is 225 to 227 °C.

Which melting point does the source give for `O=S1(=O)N(CCCN2CC=C(c3ccccc3)CC2)c2cccc3c2N1CCC3` here?
The melting point was 120 °C.

For `COC(=O)C(=Cc1cccc(-c2ccc(Cl)cc2)c1)NC(C)=O`, which melting point is on record?
Its melting point is 168 °C.

Which melting point does the source give for `NC1(C(=O)NOCc2ccccc2)CCCC1` here?
The melting point was 94 to 96 °C.

Which melting point does the source give for `Clc1ncnc(Cl)c1Oc1ccccc1` here?
The melting point was 89 to 90 °C.

For `O=C(Nc1ccc(Cl)cc1)Oc1ccc2c(c1)N(Cc1ccccc1)CCC2`, which melting point is on record?
The melting point was 120 °C.

Which melting point does the source give for `N#CCCCN1CCC(Nc2nc3ccccc3n2Cc2ccc(F)cc2)CC1` here?
Its melting point is 130 °C.

For `CC(=O)SCC1CN2CCCC(C(=O)OC(C)(C)C)N2C1=O` (stereo unspecified), which melting point is on record?
The melting point was 92 to 93 °C.

For `Cc1cc2c(cc1C)OC(CCN1CCC3(CC1)CNC(=O)CO3)CO2` (stereo unspecified), which melting point is on record?
The melting point was 164 to 166 °C.

For `CC(C)COC(=O)Oc1ccc(S(=O)(=O)c2ccc(S(N)(=O)=O)s2)cc1`, which melting point is on record?
The melting point was 111 to 112 °C.

With `C=CC(=O)N[C@H](C)C(=O)OC1(C)CCC(C(C)C)CC1` (stereo partly specified) as the compound, how does the melting point read?
Its melting point is 79 °C.

For `COc1ccc(-c2nnc(SC)nc2-c2ccc(OC)cc2)cc1`, which melting point is on record?
The melting point was 152 to 155 °C.

With `COc1nc(-n2ncc(C#N)c2N)c(C(F)(F)F)cc1Cl` as the compound, how does the melting point read?
The melting point was 163 to 165 °C.

With `Cc1cc(-c2nc3cc(F)cc(N4CCCC4)c3c(=O)[nH]2)cc(C)c1OCCN1CCCC1` as the compound, how does the melting point read?
The melting point was 207 °C.

With `C#CCNc1cccc2c1OC(F)(F)O2` as the compound, how does the melting point read?
The melting point was 66 to 68 °C.

Which melting point does the source give for `O=[N+]([O-])c1cn2c(n1)OC(COc1ccc(N3CCN(CC4CCN(Cc5ccc(C(F)(F)F)cc5)CC4)CC3)cc1)CC2` (stereo unspecified) here?
Its melting point is 214 to 217 °C.

For `CN1CCN(CCCNc2ncc3cc(-c4c(Cl)cccc4Cl)c(=O)n(C)c3n2)CC1`, which melting point is on record?
The melting point was 170 to 172 °C.

With `CCOC(=O)C1=CNc2cccnc2S1` as the compound, how does the melting point read?
The melting point was 194 to 195 °C.

With `CN(C)c1ccc(CSC2=NC(C)(C)C(SCc3ccc(N(C)C)cc3)=N2)cc1` as the compound, how does the melting point read?
The melting point was 91 to 92 °C.

With `CCSc1cc(S(N)(=O)=O)sc1SCC` as the compound, how does the melting point read?
Its melting point is 82 to 84 °C.

With `CC(C)Sc1ccc(N)c(C#N)c1` as the compound, how does the melting point read?
The melting point was 67 to 68 °C.

For `Cc1ccc(NC(=O)NCc2ccc3c(c2)CN(C2CCC(=O)NC2=O)C3=O)cc1O` (stereo unspecified), which melting point is on record?
Its melting point is 273 to 275 °C.

Which melting point does the source give for `COC(=O)c1ccc(NC2CC2)c(S(N)(=O)=O)c1` here?
Its melting point is 158 to 161 °C.
